Laboratory results: patent publication US20210386367A1, “DEVICES AND SYSTEMS FOR GASTROINTESTINAL MICROBIOME DETECTION AND MANIPULATION” (Progenity, Inc., priority 2018, published 2021)
≈ marks a conversion by molar mass, not a printed value. Like-named read-outs stand apart in the source and are kept apart here.

Legend:
B. vulgatus = test: Spontaneous mutation frequency and mutation prevention concentration (MPC); assay type: cell-based; settings: B. vulgatus ATCC 8482
From the text: (§1) As used herein, “spontaneous mutation frequency” refers to the rate at which mutations arise in a bacterium that can lead to resistance to develop to an antimicrobial agent. “Mutation prevention concentration” or “MPC” refers to the lowest concentration of antimicrobial agent above which the selective proliferation of resistant mutants is expected to occur only rarely.

Escherichia coli = test: as above; assay type: cell-based; settings: for MPC: mutant prevention concentration
From the text: as §1

S. pyogenes = test: as above; assay type: cell-based; settings: S. pyogenes ATCC 49399; mutant prevention concentration
From the text: as §1

[1] = system: E. coli ATCC 35218 (TEM-1 β-lactamase producer); test: Broth microdilution MIC (time-kill study); assay type: cell-based, Escherichia coli
S. pneumoniae ATCC 49619 = test: Broth microdilution MIC (time-kill study); assay type: cell-based, Streptococcus pneumoniae
E. coli ATCC 25922 = test: Time-kill assay; assay type: cell-based, Escherichia coli; settings: 2×, 4×, 8× MIC; 2, 6, 24 hr
E. coli MMX 1312 = test: Time-kill assay; assay type: cell-based, Escherichia coli; settings: 2×, 4×, 8× MIC; 2, 6, 24 hr
B. vulgatus ATCC 8482 = test: Time-kill assay; assay type: cell-based, Bacteroides vulgatus; settings: 2×, 4×, 8× MIC; 2, 6, 24, 48 hr
[2] = system: Streptococcus spp. spontaneous mutants; test: organism not typed; assay type: cell-based
How it was run: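 Spontaneous mutants from drug selection plates were tested by CLSI broth microdilution in MHB II with two-fold serial drug dilutions. Inoculum was about 5×10^5 CFU/mL, incubated aerobically at 35° C. for 18-20 hr. MIC was the lowest concentration inhibiting visible growth.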

SIBO Bacteria = settings: cited from earlier work
[3] = ceftriaxone selection 4X MIC, 16 μg/mL
[4] = ceftriaxone selection 8X MIC, 32 μg/mL
[5] = E. coli ATCC 25922, ceftriaxone selection 8X MIC, 0.5 μg/mL
[6] = E. coli MMX 1312, ceftriaxone selection 4X MIC, 16 μg/mL
[7] = E. coli MMX 1312, ceftriaxone selection 8X MIC, 32 μg/mL

CO/N=C(\C(=O)N[C@@H]1C(=O)N2C(C(=O)O)=C(CSc3nc(=O)c(=O)[nH]n3C)CS[C@H]12)c1csc(N)n1 [ceftriaxone]
Average Count (B. vulgatus; [3]): TNTC
Count 1 (B. vulgatus; [3]): TNTC
Count 2 (B. vulgatus; [3]): TNTC
Spontaneous Mutation Frequency (B. vulgatus; ceftriaxone selection 4X MIC, 16 μg/mL, based on estimated count of >500 average CFU): >8.69 × 10^−8
Average Count (B. vulgatus; [4]): 0 CFU
Count 1 (B. vulgatus; [4]): 0 CFU
Count 2 (B. vulgatus; [4]): 0 CFU
Spontaneous Mutation Frequency (B. vulgatus; [4]): ≤1.74 × 10^−10
MPC (B. vulgatus; mutant prevention concentration): 32 µg/mL
Average Count (Escherichia coli; [5]): 0 CFU
Count 1 (Escherichia coli; [5]): 0 CFU
Count 2 (Escherichia coli; [5]): 0 CFU
Spontaneous Mutation Frequency (Escherichia coli; [5]): ≤7.41 × 10^−9
MPC (Escherichia coli; E. coli ATCC 25922): 0.25 µg/mL
MPC (Escherichia coli; E. coli ATCC 35218): 0.12 µg/mL
Average Count (Escherichia coli; [6]): TNTC
Count 1 (Escherichia coli; [6]): TNTC
Count 2 (Escherichia coli; [6]): TNTC
Average Count (Escherichia coli; [7]): TNTC
Count 1 (Escherichia coli; [7]): TNTC
Count 2 (Escherichia coli; [7]): TNTC
MPC (S. pyogenes): 0.12 µg/mL
MIC ([1]; E. coli ATCC 35218): 0.03 µg/mL (≈ 0.0541 µM)
MIC ([1]; Escherichia coli, ATCC35218): 0.03 µg/mL (≈ 0.0541 µM)
MIC (S. pneumoniae ATCC 49619; S. pneumoniae ATCC 49619): 0.06 µg/mL (≈ 0.108 µM)
MIC (S. pneumoniae ATCC 49619; Streptococcus pneumoniae, ATCC49619, broth microdilution, read-out: MIC): 0.06 µg/mL (≈ 0.108 µM)
time-kill kinetics outcome (bactericidal = ≥3 log reduction in CFU per mL) (E. coli ATCC 25922): bactericidal at 8×MIC at 24 hr
time-kill kinetics outcome (bactericidal = ≥3 log reduction in CFU per mL) (E. coli MMX 1312): killing at 6 and 24 hr that approached 3-logs
time-kill kinetics outcome (bactericidal = ≥3 log reduction in CFU per mL) (B. vulgatus ATCC 8482): bactericidal effect was observed at 8×MIC at 6, 24 and 48 hr; at 4×MIC at 6 and 24 hr; and at 2×MIC at 48 hr
MIC ([2]; S. pneumoniae ATCC 49619, selected on rifaximin 4X MIC, Colony A): 0.03 µg/mL (≈ 0.0541 µM)
MIC ([2]; S. pneumoniae ATCC 49619, selected on rifaximin 4X MIC, Colony B): 0.06 µg/mL (≈ 0.108 µM)
MIC ([2]; S. pneumoniae ATCC 49619, selected on rifaximin 8X MIC, Colony A): 0.03 µg/mL (≈ 0.0541 µM)
MIC ([2]; S. pneumoniae ATCC 49619, selected on rifaximin 8X MIC, Colony B): 0.03 µg/mL (≈ 0.0541 µM)
MIC ([2]; S. pneumoniae ATCC 49619 Parent): 0.06 µg/mL (≈ 0.108 µM)
MIC ([2]; S. pyogenes ATCC 49399, selected on rifaximin 4X MIC, Colony A): 0.008 µg/mL (≈ 0.0144 µM)
MIC ([2]; S. pyogenes ATCC 49399, selected on rifaximin 4X MIC, Colony B): 0.015 µg/mL (≈ 0.027 µM)
MIC ([2]; S. pyogenes ATCC 49399, selected on rifaximin 8X MIC, Colony A): 0.015 µg/mL (≈ 0.027 µM)
MIC ([2]; S. pyogenes ATCC 49399, selected on rifaximin 8X MIC, Colony B): 0.008 µg/mL (≈ 0.0144 µM)
MIC ([2]; S. pyogenes ATCC 49399 Parent): 0.015 µg/mL (≈ 0.027 µM)
MIC ([2]; Streptococcus, ATCC13813, S. agaloctiae ATCC 13813, selected on rifaximin 4X MIC, Colony A): 0.015 µg/mL (≈ 0.027 µM)
MIC ([2]; Streptococcus, ATCC13813, S. agaloctiae ATCC 13813, selected on rifaximin 4X MIC, Colony B): 0.015 µg/mL (≈ 0.027 µM)
MIC ([2]; Streptococcus, ATCC13813, S. agaloctiae ATCC 13813, selected on rifaximin 8X MIC, Colony A): 0.015 µg/mL (≈ 0.027 µM)
MIC ([2]; Streptococcus, ATCC13813, S. agaloctiae ATCC 13813, selected on rifaximin 8X MIC, Colony B): 0.06 µg/mL (≈ 0.108 µM)
MIC ([2]; Streptococcus, ATCC13813, S. agaloctiae ATCC 13813 Parent): 0.015 µg/mL (≈ 0.027 µM)
activity against SIBO organisms (SIBO Bacteria): active against SIBO organisms
